For this experiment, the system named is ERK phosphorylation. Kind of experiment: Analysis of ERK phosphorylation (Alphascreen SureFire Phospho-ERK 1/2). To be noted: cells treated for 1 h; human melanoma cells, human and mouse colon cancer cells; read-out: Minimum concentration (nM) required for ≧80% inhibition of pERK. The format is cell-based, human and mouse. How it is done: This assay was carried out with human melanoma cells, human and mouse colon cancer cells. Cells were treated for 1 h with various concentrations of test compounds. ERK phosphorylation analysis was performed using the Alphascreen SureFire Phospho-ERK 1/2 Kit (Perkin Elmer), by following the manufacturer's instructions. % inhibition of ERK phosphorylation was determined as: 100−{(RFU test−RFU lysis buffer control)/(RFU vehicle treated control−RFU lysis buffer control)}×100. Percentage inhibition at concentrations of 0.01 nM, 0.03 nM, 0.1-0.9 nM, 1 nM to 3 nM, 4-100 nM, and >100 nM, for the stated examples is setworth here. The percentage inhibition at the above depicted concentrations for the compounds stated are given in the following groups.
(In Alpha technology, singlet oxygen from a donor bead excites a nearby acceptor bead.)

As to `Cc1c(Nc2ccc(I)cc2F)c2c(=O)n(C3CC3)c(=O)n(-c3cccc(C(F)(F)C(N)=O)c3)c2n(C)c1=O` [Compound 30, 2-(3-(3-cyclopropyl-5-((2-fluoro-4-iodophenyl)amino)-6,8-dimethyl-2,4,7-trioxo-3,4,7,8-tetrahydropyrido[2,3-d]pyrimidin-1(2H)-yl)phenyl)-2,2-difluoroacetamide], the IC80 lay in the range of 1 to 3 nM.
`Cc1c(=O)n(C)c(Nc2ccc(I)cc2F)c2c(=O)n(C3CC3)c(=O)n(-c3cccc(CC(=O)NC4COC4)c3)c12` [Compound 31, 2-(3-(3-cyclopropyl-5-((2-fluoro-4-iodophenyl)amino)-6,8-dimethyl-2,4,7-trioxo-3,4,6,7-tetrahydropyrido[4,3-d]pyrimidin-1(2H)-yl)phenyl)-N-(oxetan-3-yl)acetamide]: the IC80 worked out at 0.01 nM.
In the case of `Cc1c(=O)n(C)c(Nc2ccc(I)cc2F)c2c(=O)n(C3CC3)c(=O)n(-c3cccc(C(O)C(N)=O)c3)c12` (stereo not drawn) [Compound 32, 2-(3-(3-cyclopropyl-5-((2-fluoro-4-iodophenyl)amino)-6,8-dimethyl-2,4,7-trioxo-3,4,6,7-tetrahydropyrido[4,3-d]pyrimidin-1(2H)-yl)phenyl)-2-hydroxyacetamide], the IC80 is 1 to 3 nM.
For the molecule `Cc1c(=O)n(C)c(Nc2ccc(I)cc2F)c2c(=O)n(C3CC3)c(=O)n(-c3cccc(CC(=O)N4CC(O)C4)c3)c12` [Compound 33, 3-cyclopropyl-5-((2-fluoro-4-iodophenyl)amino)-1-(3-(2-(3-hydroxyazetidin-1-yl)-2-oxoethyl)phenyl)-6,8-dimethylpyrido[4,3-d]pyrimidine-2,4,7(1H,3H,6H)-trione], the IC80 was in the range of 1 to 3 nM.
`Cc1c(=O)n(C)c(Nc2ccc(I)cc2F)c2c(=O)n(C3CC3)c(=O)n(-c3cccc(CCC(N)=O)c3)c12` [Compound 34, 3-(3-(3-cyclopropyl-5-((2-fluoro-4-iodophenyl)amino)-6,8-dimethyl-2,4,7-trioxo-3,4,6,7-tetrahydropyrido[4,3-d]pyrimidin-1(2H)-yl)phenyl)propanamide]: the IC80 was in the range of 1 to 3 nM.
Consider `Cc1c(=O)n(C)c(Nc2ccc(I)cc2F)c2c(=O)n(C3CC3)c(=O)n(-c3cccc(OCC(N)=O)c3)c12` [Compound 35, 2-(3-(3-cyclopropyl-5-((2-fluoro-4-iodophenyl)amino)-6,8-dimethyl-2,4,7-trioxo-3,4,6,7-tetrahydropyrido[4,3-d]pyrimidin-1(2H)-yl)phenoxy)acetamide], for which the IC80 amounted to 0.03 nM.
To `CNC(=O)CCc1cccc(-n2c(=O)n(C3CC3)c(=O)c3c(Nc4ccc(I)cc4F)n(C)c(=O)c(C)c32)c1` [Compound 36, 3-(3-(3-cyclopropyl-5-((2-fluoro-4-iodophenyl)amino)-6,8-dimethyl-2,4,7-trioxo-3,4,6,7-tetrahydropyrido[4,3-d]pyrimidin-1(2H)-yl)phenyl)-N-methylpropanamide] belongs 1 to 3 nM; to `Cc1c(=O)n(C)c(Nc2ccc(I)cc2F)c2c(=O)n(C3CC3)c(=O)n(-c3cccc(C(=O)N4CCS(=O)(=O)C4)c3)c12` [Compound 38, 3-cyclopropyl-1-(3-(1,1-dioxidothiazolidine-3-carbonyl)phenyl)-5-((2-fluoro-4-iodophenyl)amino)-6,8-dimethylpyrido[4,3-d]pyrimidine-2,4,7(1H,3H,6H)-trione], 0.1 to 0.9 nM.
As to `Cc1c(=O)n(C)c(Nc2ccc(I)cc2F)c2c(=O)n(C3CC3)c(=O)n(-c3cccc(C(=O)N4CCS(=O)(=O)CC4)c3)c12` [Compound 39, 3-cyclopropyl-1-(3-(1,1-dioxidothiomorpholine-4-carbonyl)phenyl)-5-((2-fluoro-4-iodophenyl)amino)-6,8-dimethylpyrido[4,3-d]pyrimidine-2,4,7(1H,3H,6H)-trione], the IC80 fell in the range of 1 to 3 nM.
Regarding `Cc1c(=O)n(C)c(Nc2ccc(I)cc2F)c2c(=O)n(C3CC3)c(=O)n(-c3cccc(CCC(=O)NC4CC4)c3)c12` [Compound 40, N-cyclopropyl-3-(3-(3-cyclopropyl-5-((2-fluoro-4-iodophenyl)amino)-6,8-dimethyl-2,4,7-trioxo-3,4,6,7-tetrahydropyrido[4,3-d]pyrimidin-1(2H)-yl)phenyl)propanamide], the IC80 lay within 4 to 100 nM.
For `Cc1c(=O)n(C)c(Nc2ccc(I)cc2F)c2c(=O)n(C)c(=O)n(-c3cccc(OCC(=O)NC4CC4)c3)c12` [Compound 41, N-cyclopropyl-2-(3-(5-((2-fluoro-4-iodophenyl)amino)-3,6,8-trimethyl-2,4,7-trioxo-3,4,6,7-tetrahydropyrido[4,3-d]pyrimidin-1(2H)-yl)phenoxy)acetamide], the IC80 fell in the range of 0.1 to 0.9 nM.
To `Cc1c(=O)n(C)c(Nc2ccc(I)cc2F)c2c(=O)n(C)c(=O)n(-c3cccc(CC(N)=O)c3)c12` [Compound 42, 2-(3-(5-((2-fluoro-4-iodophenyl)amino)-3,6,8-trimethyl-2,4,7-trioxo-3,4,6,7-tetrahydropyrido[4,3-d]pyrimidin-1(2H)-yl)phenyl)acetamide] belongs 0.1 to 0.9 nM.
To `Cc1c(=O)n(C)c(Nc2ccc(I)cc2F)c2c(=O)n(C)c(=O)n(-c3cccc(C(C)(C)C(N)=O)c3)c12` [Compound 43, 2-(3-(5-((2-fluoro-4-iodophenyl)amino)-3,6,8-trimethyl-2,4,7-trioxo-3,4,6,7-tetra hydropyrido[4,3-d]pyrimidin-1(2H)-yl)phenyl)-2-methylpropanamide] belongs 0.1 to 0.9 nM; to `Cc1c(=O)n(C)c(Nc2ccc(I)cc2F)c2c(=O)n(C)c(=O)n(-c3cccc(CC(=O)N(C)C)c3)c12` [Compound 44, 2-(3-(5-((2-fluoro-4-iodophenyl)amino)-3,6,8-trimethyl-2,4,7-trioxo-3,4,6,7-tetra hydropyrido[4,3-d]pyrimidin-1(2H)-yl)phenyl)-N,N-dimethylacetamide], 0.1 to 0.9 nM; to `Cc1c(=O)n(C)c(Nc2ccc(I)cc2F)c2c(=O)n(C)c(=O)n(-c3cccc(C(F)(F)C(N)=O)c3)c12` [Compound 45, 2,2-difluoro-2-(3-(5-((2-fluoro-4-iodophenyl)amino)-3,6,8-trimethyl-2,4,7-trioxo-3,4,6,7-tetrahydropyrido[4,3-d]pyrimidin-1(2H)-yl)phenyl)acetamide], 1 to 3 nM.
For the molecule `Cc1c(=O)n(C)c(Nc2ccc(I)cc2F)c2c(=O)n(C)c(=O)n(-c3cccc(CC(=O)N4CCC4)c3)c12` [Compound 46, 1-(3-(2-(azetidin-1-yl)-2-oxoethyl)phenyl)-5-((2-fluoro-4-iodophenyl)amino)-3,6,8-trimethylpyrido[4,3-d]pyrimidine-2,4,7(1H,3H,6H)-trione], the IC80 is 0.01 nM.
In the case of `Cc1c(=O)n(C)c(Nc2ccc(I)cc2F)c2c(=O)n(C)c(=O)n(-c3cccc(C(O)C(N)=O)c3)c12` (stereo not drawn) [Compound 47, 2-(3-(5-((2-fluoro-4-iodophenyl)amino)-3,6,8-trimethyl-2,4,7-trioxo-3,4,6,7-tetrahydropyrido[4,3-d]pyrimidin-1(2H)-yl)phenyl)-2-hydroxyacetamide], the IC80 is 0.1 to 0.9 nM.
The value for `Cc1c(=O)n(C)c(Nc2ccc(I)cc2F)c2c(=O)n(C)c(=O)n(-c3cccc(CC(=O)N4CC(O)C4)c3)c12` [Compound 48, 5-((2-fluoro-4-iodophenyl)amino)-1-(3-(2-(3-hydroxyazetidin-1-yl)-2-oxoethyl)phenyl)-3,6,8-trimethylpyrido[4,3-d]pyrimidine-2,4,7(1H,3H,6H)-trione] was 1 to 3 nM.
